Earlier results, collected in patent publication US20060159724A1, “Nutritional supplement for the management of weight” (priority 2000, published 2006).
Where two headings read alike, the source gives them in different places.

Columns and labels:
[1] = area under glycemic response curve, 2-hour period after 50 g carbohydrate, divided by standard (white bread or glucose)
[2] = first 6-week period, no dietary restrictions

Compound | decrease in carbohydrate intake (obese subjects; [2]) | subjects with early satiety (obese subjects; [2]) [%] | weight loss (obese subjects; obese subjects, 900 mg 5-HTP three times a day 30 minutes before meals, two 6-week periods, p<0.02 vs control arm) [%] | subjects with early satiety (obese subjects; second 6-week period, energy-restricted diet of 1,200 kcal) [%] | glycemic index (GI) [1]
N[C@@H](Cc1c[nH]c2ccc(O)cc12)C(=O)O [5-HTP, 5-hydroxytryptophan] | about 50% | 100 | 5 | 90 | –
O=C(CO)[C@@H](O)[C@H](O)[C@H](O)CO [Fructose, fructose] | – | – | – | – | 32
